# From EP0912751B1, “PROCESS FOR PREPARATION OF D-PROLINE D[…] MEANS OF MICRO-ORGANISMS” (LONZA AG, priority 1996, dated 1998)
# System: Amidinohydrolase
# Assay: Enzyme characterisation (kinetics and inhibition) with whole cells
# Assay type: biochemical, Pseudomonas aeruginosa (DSM 10581)
# Procedure: Die Enzymcharakterisierung wurde mit ganzen Zellen von Pseudomonas aeruginosa (DSM 10581) durchgeführt. Dabei betrug die optische Dichte der Zellsuspension OD600 = 17. Der Einfluss der Temperatur wurde in 100 mM Phosphatpuffer (pH 7 - 8) bei einer Substratkonzentration von 25 mM L-α-Chlor-δ-guanidinvaleriansäure bestimmt. Dabei zeigte sich, dass bei 37 °C eine um 40% höhere Aktivität als bei 30 °C erhalten wurde. Der Einfluss des pH-Wertes wurde in gleichem Puffer, bei gleicher Substratkonzentration und bei einer Temperatur von 37 °C ermittelt. Gemessen wurde die Aktivität bei pH 7; pH 7,5; pH 8,0, pH 8,5. Dabei wurde festgestellt, dass das pH-Optimum bei pH 8,5 lag. Durch Einsatz von verschiedenen Konzentrationen an L-α-Chlor-δ-guanidinvaleriansäure wurde der KM-Wert und Vmax bei einer Temperatur von 37 °C, in 100 mM Phosphatpuffer (pH 8,5), bestimmt. Der KM-Wert betrug 85,2 mmol / l und Vmax 0,38 mmol / l / min (Fig. 3).
# Durch Zugabe von verschiedenen Konzentrationen an L-α-Chlor-δ-aminovaleriansäure (hergestellt aus Ornithin analog zu Beispiel 6) konnte eine Hemmung nachgewiesen werden.
SMILES,Hemmung (inhibitor at a concentration of 50 mM (Fig. 4)),"Hemmung der Amidinohydrolase (listed as a property of the enzyme, no concentration given)","Vmax (substrate of the enzyme, 37 °C, 100 mM Phosphatpuffer (pH 8,5), whole cells, OD600 = 17)","Km (substrate of the enzyme, 37 °C, 100 mM Phosphatpuffer (pH 8,5), whole cells, OD600 = 17, read-out: KM-Wert) [mM]"
NCCC[C@H](Cl)C(=O)O [L-α-Chlor-δ-aminovaleriansäure],vollständige Hemmung,–,–,–
N=C(N)NCCC[C@H](Cl)C(=O)O [L-α-Chlor-δ-guanidinvaleriansäure],–,gehemmt,"0,38 mmol / l / min",85.2
